Assay results reported in US8314150B2, “Kinase protein binding inhibitors” (priority 2008, dated 2012).

Assays:
[1] = system: BT474 breast cancer cells; assay: BT474 subcutaneous tumor growth in nude mice; assay type: in vivo
Protocol: (§1) Cell Viability Assay—The Cells were treated with peptides for 24 hours at different peptide concentrations. The 3-(4,5-dimethylthiazol-2-yl)-5-(3-carboxymethoxyphenyl)-2-(4-sulfophenyl)-2H-tetrazolium compound from Promega Viability kit (Madison, Ill.) was added, and the cells were incubated at 37° C. for 1-2 hours. The optical density on 96-plate was analyzed with a microplate reader at 490 nm to determine cell viability. In addition, cells were stained with trypan blue after 24 hours of treatment with Y15 and the percent of cells that stained positive were determined with a hemacytometer. Cell adhesion assay—The poly-L-Lysine or Collagen (5 μg/ml) coated 96-well plates were blocked with the blocking buffer (medium with 0.5% BSA) for 1 hour at 37 C. The cells were pre-treated with drugs for 3 hours and plated for adhesion at 4×10^5 cells. Cells were incubated at 37 C for 1 hour, fixed in 3.7% formaldehyde, washed in 0.1% BSA in PBS and stained with crystal violet (5 mg/ml in 2% ethanol) for 10 minutes. Then 2% SDS was added to the dried plated and OD at 590 nm was measured for detecting cell adhesion. […] Protein concentrations were determined using a Bio-Rad Kit. The boiled samples were loaded on Ready SDS-10% PAGE gels (Bio Rad, Inc) and used for Western blot analysis with the protein-specific antibody. […] Detachment Assay—Cells were plated with and without inhibitors for 24 hours, and detached and attached cells were counted in a hemocytometer. We calculated the percent of detachment by dividing the number of detached cells by the total number of cells. The percent of detached cells was calculated in three independent experiments. […] The percent of apoptotic cells was calculated as a ratio of apoptotic detached cells divided by the total number of cells in three independent experiments in several fields with the fluorescent microscope. For each experiment 300 cells per treatment were counted. In vitro Kinase Assay—10 μCi of [γ-^32P]-ATP in a kinase buffer (20 mM HEPES, pH 7.4, 5 mM MgCl2, 5 mM MnCl2, 0.1 mM Na3VO4 with 0.1 μg of purified FAK protein were incubated in a kinase buffer with 10 μCi of [γ-^32P]-ATP. The kinase reaction was performed for 5 minutes at room temperature and stopped by addition of 2× Laemmli buffer. Proteins were separated on a Ready SDS-10% PAGE gel, and the phosphorylated enolase was visualized by autoradiography. KinaseProfiler screening—Kinase specificity screening was performed with KinaseProfiler™ Service (Millipore) available on http://www.millipore.com/drugdiscovery/dd3/KinaseProfiler. […]

[2] = system: tumor associated fibroblasts; assay: Trypan blue staining, tumor associated fibroblasts; assay type: cell-based; settings: increasing doses, 24 hours
Protocol: (§2) Cell Viability Assay—The Cells were treated with peptides for 24 hours at different peptide concentrations. The 3-(4,5-dimethylthiazol-2-yl)-5-(3-carboxymethoxyphenyl)-2-(4-sulfophenyl)-2H-tetrazolium compound from Promega Viability kit (Madison, Ill.) was added, and the cells were incubated at 37° C. for 1-2 hours. The optical density on 96-plate was analyzed with a microplate reader at 490 nm to determine cell viability. In addition, cells were stained with trypan blue after 24 hours of treatment with Y15 and the percent of cells that stained positive were determined with a hemacytometer. […] Then 2% SDS was added to the dried plated and OD at 590 nm was measured for detecting cell adhesion. […] Protein concentrations were determined using a Bio-Rad Kit. The boiled samples were loaded on Ready SDS-10% PAGE gels (Bio Rad, Inc) and used for Western blot analysis with the protein-specific antibody. […] Detachment Assay—Cells were plated with and without inhibitors for 24 hours, and detached and attached cells were counted in a hemocytometer. We calculated the percent of detachment by dividing the number of detached cells by the total number of cells. The percent of detached cells was calculated in three independent experiments. […] For each experiment 300 cells per treatment were counted. […]

normal human fibroblasts = assay: Detachment and morphology, normal human fibroblasts; assay type: cell-based; settings: doses up to 10 μM
Protocol: as §2

BT474 cells [3] = assay: Detachment assay, BT474; assay type: cell-based; settings: 24 hours
Protocol: Cell Viability Assay—The Cells were treated with peptides for 24 hours at different peptide concentrations. The 3-(4,5-dimethylthiazol-2-yl)-5-(3-carboxymethoxyphenyl)-2-(4-sulfophenyl)-2H-tetrazolium compound from Promega Viability kit (Madison, Ill.) was added, and the cells were incubated at 37° C. for 1-2 hours. The optical density on 96-plate was analyzed with a microplate reader at 490 nm to determine cell viability. In addition, cells were stained with trypan blue after 24 hours of treatment with Y15 and the percent of cells that stained positive were determined with a hemacytometer. Cell adhesion assay—The poly-L-Lysine or Collagen (5 μg/ml) coated 96-well plates were blocked with the blocking buffer (medium with 0.5% BSA) for 1 hour at 37 C. The cells were pre-treated with drugs for 3 hours and plated for adhesion at 4×10^5 cells. Cells were incubated at 37 C for 1 hour, fixed in 3.7% formaldehyde, washed in 0.1% BSA in PBS and stained with crystal violet (5 mg/ml in 2% ethanol) for 10 minutes. Then 2% SDS was added to the dried plated and OD at 590 nm was measured for detecting cell adhesion. Western Blotting—Cells or homogenized tumor samples were washed twice with cold 1×PBS and lysed on ice for 30 minutes in a buffer containing: 50 mM Tris-HCl (pH 7.5), 150 mM NaCl, 1% Triton-X, 0.5% NaDOC, 0.1% SDS, 5 mM EDTA, 50 mM NaF, 1 mM NaVO3, 10% glycerol and protease inhibitors: 10 μg/ml leupeptin, 10 μg/ml PMSF and 1 μg/ml aprotinin. The lysates were cleared by centrifugation at 10,000 rpm for 30 minutes at 4° C. Protein concentrations were determined using a Bio-Rad Kit. The boiled samples were loaded on Ready SDS-10% PAGE gels (Bio Rad, Inc) and used for Western blot analysis with the protein-specific antibody. Immunoblots were developed with chemiluminescence Renaissance reagent (NEN Life Science Products, Inc). Immunoprecipitation. Immunoprecipitation was performed according to the standard protocol. In brief, the pre-cleared lysates with equal amount of protein were incubated with 1 μg of primary antibody and 30 μl A/G agarose beads overnight at 4° C. The precipitates were washed with lysis buffer three times and re-suspended in 2× Laemmli buffer. The boiled samples were used for Western blotting, as described above. Detachment Assay—Cells were plated with and without inhibitors for 24 hours, and detached and attached cells were counted in a hemocytometer. We calculated the percent of detachment by dividing the number of detached cells by the total number of cells. The percent of detached cells was calculated in three independent experiments. Apoptosis Assay. […] The percent of apoptotic cells was calculated as a ratio of apoptotic detached cells divided by the total number of cells in three independent experiments in several fields with the fluorescent microscope. For each experiment 300 cells per treatment were counted. In vitro Kinase Assay—10 μCi of [γ-^32P]-ATP in a kinase buffer (20 mM HEPES, pH 7.4, 5 mM MgCl2, 5 mM MnCl2, 0.1 mM Na3VO4 with 0.1 μg of purified FAK protein were incubated in a kinase buffer with 10 μCi of [γ-^32P]-ATP. The kinase reaction was performed for 5 minutes at room temperature and stopped by addition of 2× Laemmli buffer. Proteins were separated on a Ready SDS-10% PAGE gel, and the phosphorylated enolase was visualized by autoradiography. KinaseProfiler screening—Kinase specificity screening was performed with KinaseProfiler™ Service (Millipore) available on http://www.millipore.com/drugdiscovery/dd3/KinaseProfiler. […]

VEGFR-3 phosphorylation = assay: Phosphorylation of VEGFR-3 in cells; assay type: cell-based; settings: not shown
Protocol: as §2

BT474 cells [4] = assay: Apoptosis assay (Hoechst staining), BT474; assay type: cell-based
Protocol: as §1

[5] = system: BT474, T47D, MCF-7 breast cancer, HT29 colon cancer, C8161 melanoma, A549 lung cancer cell lines; assay: MTT cell viability screen of 36 compounds in 6 cancer cell lines; assay type: cell-based; settings: 100 μM, 24 hours, among 36 compounds
Protocol: as §2

c-Src phosphorylation = assay: Phosphorylation of c-Src in cells; assay type: cell-based; settings: not shown
Protocol: as §2

[6] = system: Y118-paxillin phosphorylation; assay: Western blotting Y118-paxillin, BT474 cells; assay type: cell-based; settings: 100 μM, 24 hours
Protocol: as §2

pancreatic tumor cells = assay: Cell adhesion assay on collagen-coated plates, pancreatic tumor cells; assay type: cell-based, human
Protocol: as §2

[7] = system: total FAK phosphorylation; assay: FAK immunoprecipitation and Western blotting with P-tyrosine antibody, BT474; assay type: cell-based; settings: IP with FAK antibody
Protocol: as §2

FAK-Y397 phosphorylation = assay: FAK-Y397 levels in Panc-1 tumors by Western blotting; assay type: in vivo, mice; settings: 30 mg/kg, day 36, vs PBS
Protocol: as §2

[8] = system: BT474 breast cancer cells; assay: MTT cell viability assay, BT474; assay type: cell-based; settings: 24 hours
Protocol: as §2

Panc-1 cells = assay: Apoptosis assay (Hoechst staining), Panc-1; assay type: cell-based, human
Protocol: as §1, with “counted.” for “counted. In vitro Kinase Assay—10 μCi of [γ-^32P]-ATP in a kinase buffer (20 mM HEPES, pH 7.4, 5 mM MgCl2, 5 mM MnCl2, 0.1 mM Na3VO4 with 0.1 μg of purified FAK protein were incubated in a kinase buffer with 10 μCi of [γ-^32P]-ATP. The kinase reaction was performed for 5 minutes at room temperature and stopped by addition of 2× Laemmli buffer. Proteins were separated on a Ready SDS-10% PAGE gel, and the phosphorylated enolase was visualized by autoradiography. KinaseProfiler screening—Kinase specificity screening was performed with KinaseProfiler™ Service (Millipore) available on http://www.millipore.com/drugdiscovery/dd3/KinaseProfiler.”

FAK = biological target: T1, FAK (Homo sapiens, UniProt Q05397); assay: In vitro kinase assay with purified recombinant FAK; assay type: biochemical; settings: doses 1-100 μM tested
T1 construct: made in house; host or cells: Baculovirus system
T1 sequence (Q05397 whole entry): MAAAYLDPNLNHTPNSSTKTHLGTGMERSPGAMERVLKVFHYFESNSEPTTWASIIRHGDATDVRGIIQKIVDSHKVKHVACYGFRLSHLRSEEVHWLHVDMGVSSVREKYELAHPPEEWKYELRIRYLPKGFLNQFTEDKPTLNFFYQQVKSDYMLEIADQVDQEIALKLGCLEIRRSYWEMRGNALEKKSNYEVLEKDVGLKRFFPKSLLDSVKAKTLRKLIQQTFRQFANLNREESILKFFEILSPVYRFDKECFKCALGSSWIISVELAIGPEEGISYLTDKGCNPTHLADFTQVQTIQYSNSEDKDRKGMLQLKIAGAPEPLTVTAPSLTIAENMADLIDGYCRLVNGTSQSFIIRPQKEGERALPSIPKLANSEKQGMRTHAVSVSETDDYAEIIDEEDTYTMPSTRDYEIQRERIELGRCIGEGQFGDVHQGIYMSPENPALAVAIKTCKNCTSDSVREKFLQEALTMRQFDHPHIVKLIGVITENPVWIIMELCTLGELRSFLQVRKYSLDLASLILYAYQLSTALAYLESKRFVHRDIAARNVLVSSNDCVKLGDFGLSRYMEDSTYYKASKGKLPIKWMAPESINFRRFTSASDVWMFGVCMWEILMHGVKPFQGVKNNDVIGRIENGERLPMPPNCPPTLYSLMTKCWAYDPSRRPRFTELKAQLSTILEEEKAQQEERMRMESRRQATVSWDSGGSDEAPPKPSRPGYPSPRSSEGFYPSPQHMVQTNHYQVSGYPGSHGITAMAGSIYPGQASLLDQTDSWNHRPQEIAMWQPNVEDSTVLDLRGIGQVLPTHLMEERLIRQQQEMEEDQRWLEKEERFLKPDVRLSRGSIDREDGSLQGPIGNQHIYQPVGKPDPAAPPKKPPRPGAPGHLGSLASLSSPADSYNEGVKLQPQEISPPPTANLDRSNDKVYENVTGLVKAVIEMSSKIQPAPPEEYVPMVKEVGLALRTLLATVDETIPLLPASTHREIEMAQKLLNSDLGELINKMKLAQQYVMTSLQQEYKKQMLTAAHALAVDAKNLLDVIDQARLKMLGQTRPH
Protocol: as §2

ERK1/2 phosphorylation = ERK1/2 phosphorylation in pancreatic cancer cells; assay type: cell-based, human; settings: dose dependent
Protocol: as §2

Y397-FAK phosphorylation = assay: Y397-FAK levels in BT474 tumors (Western blotting, immunohistochemistry); assay type: in vivo; settings: 30 mg/kg, vs untreated mice
Protocol: as §2

[9] = system: Y397 phosphorylation of FAK; assay: Western blotting with Y397 antibody, time course in pancreatic tumor cells; assay type: cell-based, human; settings: 100 μM
Protocol: as §2

BT474 cells [10] = assay: Cell adhesion assay on collagen-coated plates, BT474; assay type: cell-based
Protocol: as §2

SMILES: Cl.Cl.Cl.Cl.Nc1cc(N)c(N)cc1N [Y15, 1,2,4,5-benzenetetraamine tetrahydrochloride]
- tumor growth ([1]; 30 mg/kg IP, 5 days/week): significantly blocked tumor growth
- inhibition of tumor growth ([1]; 30 mg/kg, alone): > 74%
- tumor volume ([1]; 30 mg/kg, day 23, vs untreated): significantly less than in untreated samples
- tumor weight ([1]; 30 mg/kg, day 23, vs untreated mice): significantly reduced tumor weight
- cell viability (trypan blue) [2]: no significant decrease in viability
- morphology and cell detachment (normal human fibroblasts): did not cause a significant change in morphology or increase in cell detachment
- detachment (BT474 cells [3]; 10 μM): 8%
- detachment (BT474 cells [3]; 50 μM): 38%
- detachment (BT474 cells [3]; 100 μM): 58%
- phosphorylation of VEGFR-3 (VEGFR-3 phosphorylation): did not inhibit
- apoptotic nuclei (Hoechst) (BT474 cells [4]; 200 μM): No apoptotic nuclei were detected
- apoptotic levels (BT474 cells [4]; 50-100 μM): less than 6%
- cell viability [5]: maximally decreased cell viability
- phosphorylation of c-Src (c-Src phosphorylation): did not inhibit
- phosphorylation of Y118-paxillin [6]: inhibited
- cell adhesion (pancreatic tumor cells; 50 μM): decreased adhesion in a similar fashion to 50 μM of TAE226
- dose from which cell adhesion was significantly decreased (pancreatic tumor cells; collagen-coated plates): 10 µM
- total FAK phosphorylation (P-tyrosine) [7]: blocked total phosphorylation of FAK
- Y397 phosphorylation in tumors (FAK-Y397 phosphorylation): lower levels of Y397 phosphorylation
- dose at which viability started to decrease [8]: 10 µM
- doses at which viability was significantly blocked [8]: 50 to 100 µM
- apoptotic nuclei (Hoechst) (Panc-1 cells; 50 μM): no detection of apoptotic nuclei
- increase in apoptosis (Panc-1 cells; 50-100 μM, not significant): less than 10%
- dose from which FAK autophosphorylation activity was directly blocked (FAK): 1
- p-ERK (ERK1/2 phosphorylation): down regulated
- Y397-FAK phosphorylation in tumors (Y397-FAK phosphorylation): less Y397-FAK phosphorylation
- total FAK levels in tumors (Y397-FAK phosphorylation): the same
- treatment time enough to completely block Y397-phosphorylation [9]: 24 h
- Y397 phosphorylation after 6 hours or less ([9]; 6 hours or less): did not significantly decrease Y397 phosphorylation
- cell adhesion (BT474 cells [10]; 100 μM): significantly inhibited cell adhesion as TAE-226
- dose from which cell adhesion was significantly decreased (BT474 cells [10]; collagen-coated plates): 50 µM
